This is an account of results in patent US4981842A, “Method of treating hormonal dependent mammary tumors in female mammals” (Roussel Uclaf, priority 1979, dated 1991).

The test system of test [1] is testicular steroidogenesis. Kind of test: Inhibitory activity against testicular steroidogenesis in men in good health, single intranasal dose. Particulars: for seric level of testosterone/steroids on the fourth day after administration: fourth day (until 6th day). It counts as in vivo. How it is done:
The inhibitory activity of [D Ser (tbu)^6 xdes Gly NH2^10 ]LH-RH ethylamide (described in German application Ser. No. 2,438,350) against testicular steroidogensis in men in good health was determined on men in good health aged 30 to 40 years. The said product was administered intranasally at a dose of 500 μg in a few drops of distilled water at 8 A.M. on the third day of the test. For 2 days prior to the treatment and for 6 days after the treatment, samples of blood were taken daily at 8 A.M., 3 P.M. and 10 P.M. On the day of administration of the LH-RH agonist, blood samples were taken at 11 A.M. and 6 P.M.
The seric concentrations of LH and FSH were measured by radioimmuno-logic dosages with double antibodies and the antiboides for measuring LH and FSH were furnished by the National Pituitary Agency of N.I.H. in Bethesda, Md. The seric concentrations of steroids was measured by radioimmuno-logic dosages in which one ml of serum was extracted with ether and the steroids were separated on a LH-20 column before measuring with radioimmuno-logic dosages. The radioimmuno-logic dosage results were determined by a program derived from model II of Rodbard et al [Second Karolinska Symposium on Research Methods in Reproductive Endroerinology, Diczfalusky Editer, Copenhague (1970), pp. 79-103]. The statistical significance was determined by the "multiple level test" of Duncan-Kramer [Kramer, Biometrics, vol. 12 (1956), p. 307]. The results are shown in the graphs on sheet 1 of the Figures filed herewith.

Test [2] relates to ovarian steroidogenesis. Kind of test: Inhibitory activity on ovarian steroidogenesis in women. It counts as in vivo. How it is done: The inhibitory activity of [D Ser (tbu)^6 xdes Gly NH2^10 ]LH-RH ethylamide on ovarian steroidogenosis in women was determined on 6 women aged 26 to 35 years with normal and regular menstrual cycles and without prior endocrinal or gynecological problems. The study was conducted for 6 consecutive cycles consisting of 2 pretreatment cycles, 2 treatment cycles and 2 post-treatment cycles. Two drops of a solution containing 500 μg of [D Ser (tbu)^6 xdes Gly NH2^10 ] LH-RH ethylamide were deposited on each nostril at 8 A.M. and 5 P.M. of a day between the 4th and 9th day after the peak of LH-day 0. Daily blood samples were taken between 4 and 6 P.M. to measure seric levels of LH, FSH, progesterone and estradiol which were determined by radioimmuno-logictests with double antibodies. The antibodies to measure LH and FSH were furnished by the National Pituitory Agency of N.I.H. of Bethesda, Md.
Estradiol and progesterone were measured with highly specific antibodies developed against 7-(O-carboxymethyl)oxime of estradiol and 12-(O-carboxymethyl)-oxime of progesterone, respectively [3H] 17β-estradiol and ^125 I-progesterone -12-[O-carboxymethyl)-oxime]used as tracers. The serum was extracted with benzene and the steroids were separated with a LH-20 column before the determination. The radioimmunological results were exploited by the program derived from model II of Rodbard and Lewald as in Example 1 and the statistical significance was measured by the multiple level test of Ducan-Kramer of Example 1. The results are shown in the graphs of sheets 3 to 5 of the Figures.

Test [3] relates to testicular steroidogenesis. Kind of test: Inhibitory activity on testicular steroidogenesis in a patient with prostate cancer. It counts as in vivo, human. The following applies: intranasal 500 μg twice a day. An excerpt: The results are reported in the graphs of sheet 2 of the Figures.
The test system of test [4] is prostate and seminal vesicules. Kind of test: Peptide in association with an antiandrogen: weight of prostate and seminal vesicles in rats. It counts as in vivo, rats of the Sprague-Dawley strain. Particulars: 14 days, 100 or 500 μg peptide s.c. plus 5 mg product A twice daily.
Description: The effect of the administration of [D Ser (tbu)^6 des Gly NH2^10 ] LH-RH ethylamide in association with an antiandrogen was determined on groups of 9 normal rats of the Sprague-Dawley strain weighing about 250 g. The rats received for 14 days a subcutaneous administration at 9 A.M. of D Ser(Tbu)^6 of Gly^10 LH-RH ethylamide at a dose of 20, 100 or 500 μg in physiological serum and at 9 A.M. and 4 P.M. doses of 1 or 5 mg of 5,5-dimethyl-3-[4-nitro-3-trifluoromethyl-phenyl]-2,4-imidazolidinedione (product A) in solution in seasame oil containing 5% of benzyl alcohol. One group of rats received only physiological serum and one group received only product A.
The animals were killed 24 hours after the last injection and the weight of the prostate and seminal vesicules of the rats were determined.
[5] abbreviates: intranasal 500 μg, 3rd day following administration.
[6] abbreviates: intranasal 500 μg at 8 A.M. and 5 P.M. of one day in luteal phase, typical subject (sheet 3).

In the case of `CCNC(=O)[C@@H]1CCCN1C(=O)[C@H](CCCNC(=N)N)NC(=O)[C@H](CC(C)C)NC(=O)[C@@H](COC(C)(C)C)NC(=O)[C@H](Cc1ccc(O)cc1)NC(=O)[C@H](CO)NC(=O)[C@H](Cc1c[nH]c2ccccc12)NC(=O)[C@H](Cc1c[nH]cn1)NC(=O)[C@@H]1CCC(=O)N1` [[D Ser (tbu)^6 xdes Gly NH2^10] LH-RH ethylamide], in test [1] (setting [5]), the “concentration of 17-OH-progesterone relative to initial control values” was 40% and the “concentration of testosterone relative to initial control values” was 50%. Besides, the “seric concentration of pregnenolone, 17-OH-pregnenolone, progesterone, 17-OH-progesterone, Δ5-androstene-3β,17β-diol and testosterone on the day of treatment” value in test [1] (intranasal 500 μg, day of treatment) is listed as “increased”. For the same compound, the “plasmatic levels of LH and FSH” value in test [1] (intranasal 500 μg, men) is “increase”. In test [1] (single intranasal dose 500 μg), the “seric level of testosterone/steroids on the fourth day after administration” value was “returned to normal”. Further, in test [1] (single intranasal dose 500 μg, listed as peptide), the “seric level of testosterone/steroids on the fourth day after administration” value is given as “return to normal levels”. In test [1] (single intranasal dose 500 μg, human), the “duration of the drop of seric levels of testicular steroids (testosterone and its precursors)” value is 3 days. Besides, the “diminution of the level of testosterone” value in test [1] (single intranasal dose 500 μg, human, 3rd day following administration) was 50%. In addition, the “reduction of the level of progesterone as compared to the controls” value in test [2] (12 cycles of treatment (sheet 5)) was 46%. Also, in test [2] (12 cycles, 6 women), the “progesterone level in cycles of post-treatment, pretreatment cycles as base of 100%” value is recorded as 99% and the “progesterone level in cycles of treatment, pretreatment cycles as base of 100%” value was 46%. Further, in test [2] (setting [6]), the “reduction of seric levels of progesterone compared to controls, first cycle of treatment” value is 13% and the “reduction of seric levels of progesterone compared to controls, second cycle of treatment” value was 34%. Further, the “level of seric progesterone over the 2 cycles of treatment (sheet 4)” value in test [2] (return to normal for the 2 cycles of post-treatment) was “accelerated diminution”. Moreover, the “level of androgenic steroids (plasma)” value in test [3] is listed as “diminution”. In test [3] (two weeks of treatment), the “level of testosterone (plasma)” value was “stabilized at a very low level”. Further, in test [4], the “weight of the prostate” value was “Similar, but a little less marked” and the “weight of the seminal vesicules” value is “approached the weight of the seminal vesicules of castrated rats”.
